US11034672B1, “Tyrosine kinase inhibitor compositions, methods of making and methods of use” (Black Diamond Therapeutics, Inc., priority 2018, dated 2021)

Legend:
Assay type in all cases: cell-based
EGFR WT [1] = target: T1, EGFR WT (Homo sapiens, UniProt P00533); assay: Activity for inhibiting EGFR (Table A), EGFR WT; details: read-out: EGFR WT, potency code (IC50)
EGFR V3 [2] = target: T2, EGFR V3 (Homo sapiens, UniProt P00533, DELINS30-297G); assay: Activity for inhibiting EGFR (Table A), EGFR V3 (EGFR-Viii); details: read-out: EGFR V3, potency code (IC50)
T2 construct: expressed in transfected cells; host or cells: BaF3 (murine pro-B), retroviral pMXs-IRES-Blasticidin

HER2 WT [3] = target: T3, HER2 WT (Homo sapiens, UniProt P04626); assay: Activity for inhibiting HER2 (Table B), HER2 WT
HER2 S310F [4] = target: T4, HER2 S310F (Homo sapiens, UniProt P04626, S310F); assay: Activity for inhibiting HER2 (Table B), HER2 S310F; details: read-out: HER2 S310F, potency code (IC50)
T4 construct: expressed in transfected cells; host or cells: BaF3 (murine pro-B)
Description: (§1) EC50 values were determined with the same application.

HER2 YVMA [5] = target: T5, HER2 YVMA (Homo sapiens, UniProt P04626, INS775YVMA); assay: Activity for inhibiting HER2 (Table B), HER2 YVMA; details: read-out: HER2 YVMA, potency code (IC50)
T5 construct: expressed in transfected cells; host or cells: BaF3 (murine pro-B)
Description: as §1

EGFR WT [6] = target: T1, EGFR WT; assay: BaF3 cell proliferation assay, EGFR WT (Table A); details: potency code, 3 days, CellTiterGlo, read-out: EGFR WT (Activity for Inhibiting EGFR)
Summary of the method: (§2)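 Readout: EC50 for BaF3 proliferation. Cells stably expressing the receptor variant were generated by retrovirus and IL-3 independence.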

EGFR V3 [7] = target: T2, EGFR V3; assay: BaF3 cell proliferation assay, EGFR V3 (Table A); details: potency code, 3 days, CellTiterGlo, read-out: EGFR V3 (Activity for Inhibiting EGFR)
Summary of the method: as §2

HER2 WT [8] = target: T3, HER2 WT; assay: BaF3 cell proliferation assay, HER2 WT (Table B); details: potency code, 3 days, CellTiterGlo, read-out: HER2 WT (Activity for Inhibiting HER2)
HER2 S310F [9] = target: T4, HER2 S310F; assay: BaF3 cell proliferation assay, HER2 S310F (Table B); details: potency code, 3 days, CellTiterGlo, read-out: HER2 S310F (Activity for Inhibiting HER2)
HER2 YVMA [10] = target: T5, HER2 YVMA; assay: BaF3 cell proliferation assay, HER2 YVMA (Table B); details: potency code, 3 days, CellTiterGlo, read-out: HER2 YVMA (Activity for Inhibiting HER2)
EGFR NPH [11] = target: T6, EGFR NPH (Homo sapiens, UniProt P00533, DUP771-773); assay: Activity for inhibiting EGFR (Table A), EGFR NPH; details: read-out: EGFR NPH, potency code (IC50)
T6 construct: expressed in transfected cells; host or cells: BaF3 (murine pro-B), retroviral pMXs-IRES-Blasticidin

EGFR SVD [12] = target: T7, EGFR SVD (Homo sapiens, UniProt P00533, DUP768-770); assay: Activity for inhibiting EGFR (Table A), EGFR SVD; details: read-out: EGFR SVD, potency code (IC50)
T7 construct: expressed in transfected cells; host or cells: BaF3 (murine pro-B), retroviral pMXs-IRES-Blasticidin

EGFR NPH [13] = target: T6, EGFR NPH; assay: BaF3 cell proliferation assay, EGFR NPH (Table A); details: potency code, 3 days, CellTiterGlo, read-out: EGFR NPH (Activity for Inhibiting EGFR)
Description: (§3) Retroviral Production: EGFR mutants were subcloned into pMXs-IRES-Blasticidin (RTV-016, Cell Biolabs, San Diego, Calif.). Retroviral expression vector retrovirus was produced by transient transfection of HEK 293T cells with the retroviral EGFR mutant expression vector pMXs-IRES-Blasticidin (RTV-016, Cell Biolabs), pCMV-Gag-Pol vector and pCMV-VSV-G-Envelope vector. Briefly, HEK 293T/17 cells were plated in 100 mm collagen coated plate (354450, Corning Life Sciences, Tewksbury, Mass.) (4×10^5 per plate) and incubated overnight. The next day, retroviral plasmids (3 μg of EGFR mutant, 1.0 μg of pCMV-Gag-Pol and 0.5 μg pCMV-VSV-G) were mixed in 500 μl of Optimem (31985, Life Technologies). The mixture was incubated at room temperature for 5 min and then added to Optimem containing transfection reagent Lipofectamine (11668, Invitrogen) and incubated for 20 minutes. Mixture was then added dropwise to HEK 293T cells. The next day the medium was replaced with fresh culture medium and retrovirus was harvested @ 24 and 48 hrs.
(§4) Generation of EGFR mutant stable cell lines: BaF3 cells (1.5E5 cells) were infected with 1 ml of viral supernatant supplemented with 8 μg/ml polybrene by centrifuging for 30 min at 1000 rpm. Cells were placed in a 37° C. incubator overnight. Cells were then spun for 5 minutes to pellet the cells. Supernatant was removed and cells re-infected a fresh 1 ml of viral supernatant supplemented with 8 μg/ml polybrene by centrifuging for 30 min at 1000 rpm. Cells were placed in 37° C. incubator overnight. […] After 48 hours cells were selected for retroviral infection in 10 μg/ml Blasticidin for one week. Blasticidin resistant populations were washed twice in phosphate buffered saline before plating in media lacking IL-3 to select for IL-3 independent growth.
as §1

EGFR SVD [14] = target: T7, EGFR SVD; assay: BaF3 cell proliferation assay, EGFR SVD (Table A); details: potency code, 3 days, CellTiterGlo, read-out: EGFR SVD (Activity for Inhibiting EGFR)
Description: as §3, §4, §1

[15] = Table B, read-out: HER2 WT, potency code (IC50)
[16] = text lists of compounds, read-out: IC50 value for inhibiting wild-type HER2

T7 sequence (P00533 with tags, fused parts or gaps DUP768-770): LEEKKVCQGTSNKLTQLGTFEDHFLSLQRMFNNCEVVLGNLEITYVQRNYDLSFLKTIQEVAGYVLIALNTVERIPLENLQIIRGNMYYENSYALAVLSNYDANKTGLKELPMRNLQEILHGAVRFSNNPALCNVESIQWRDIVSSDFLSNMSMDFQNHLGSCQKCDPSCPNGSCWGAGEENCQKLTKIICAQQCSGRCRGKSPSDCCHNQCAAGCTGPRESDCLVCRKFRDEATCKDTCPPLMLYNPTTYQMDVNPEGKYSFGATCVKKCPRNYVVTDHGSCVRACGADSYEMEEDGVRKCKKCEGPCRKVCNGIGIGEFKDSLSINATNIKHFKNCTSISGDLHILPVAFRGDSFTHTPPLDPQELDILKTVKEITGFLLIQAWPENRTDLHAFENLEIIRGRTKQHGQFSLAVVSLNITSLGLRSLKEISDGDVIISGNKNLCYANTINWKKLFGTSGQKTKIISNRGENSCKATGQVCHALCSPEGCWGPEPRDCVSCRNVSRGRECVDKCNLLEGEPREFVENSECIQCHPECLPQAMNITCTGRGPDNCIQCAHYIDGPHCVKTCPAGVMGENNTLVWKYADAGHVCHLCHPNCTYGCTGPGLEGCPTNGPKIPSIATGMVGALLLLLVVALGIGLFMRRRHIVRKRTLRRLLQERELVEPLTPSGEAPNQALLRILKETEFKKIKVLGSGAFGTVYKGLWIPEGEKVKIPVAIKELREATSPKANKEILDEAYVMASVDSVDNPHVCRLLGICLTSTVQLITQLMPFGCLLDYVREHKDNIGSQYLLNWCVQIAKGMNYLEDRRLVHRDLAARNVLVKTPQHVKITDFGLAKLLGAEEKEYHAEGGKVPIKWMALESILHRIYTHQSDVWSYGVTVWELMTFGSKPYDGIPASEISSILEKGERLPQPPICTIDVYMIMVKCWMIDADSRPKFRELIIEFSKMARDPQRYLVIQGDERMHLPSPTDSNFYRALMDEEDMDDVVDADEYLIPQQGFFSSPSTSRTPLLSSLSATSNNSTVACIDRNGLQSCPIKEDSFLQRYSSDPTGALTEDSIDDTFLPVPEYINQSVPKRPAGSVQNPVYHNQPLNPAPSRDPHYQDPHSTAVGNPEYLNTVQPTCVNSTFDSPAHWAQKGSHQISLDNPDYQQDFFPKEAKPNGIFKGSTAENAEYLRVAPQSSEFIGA
T2 sequence (P00533 with tags, fused parts or gaps DELINS30-297G): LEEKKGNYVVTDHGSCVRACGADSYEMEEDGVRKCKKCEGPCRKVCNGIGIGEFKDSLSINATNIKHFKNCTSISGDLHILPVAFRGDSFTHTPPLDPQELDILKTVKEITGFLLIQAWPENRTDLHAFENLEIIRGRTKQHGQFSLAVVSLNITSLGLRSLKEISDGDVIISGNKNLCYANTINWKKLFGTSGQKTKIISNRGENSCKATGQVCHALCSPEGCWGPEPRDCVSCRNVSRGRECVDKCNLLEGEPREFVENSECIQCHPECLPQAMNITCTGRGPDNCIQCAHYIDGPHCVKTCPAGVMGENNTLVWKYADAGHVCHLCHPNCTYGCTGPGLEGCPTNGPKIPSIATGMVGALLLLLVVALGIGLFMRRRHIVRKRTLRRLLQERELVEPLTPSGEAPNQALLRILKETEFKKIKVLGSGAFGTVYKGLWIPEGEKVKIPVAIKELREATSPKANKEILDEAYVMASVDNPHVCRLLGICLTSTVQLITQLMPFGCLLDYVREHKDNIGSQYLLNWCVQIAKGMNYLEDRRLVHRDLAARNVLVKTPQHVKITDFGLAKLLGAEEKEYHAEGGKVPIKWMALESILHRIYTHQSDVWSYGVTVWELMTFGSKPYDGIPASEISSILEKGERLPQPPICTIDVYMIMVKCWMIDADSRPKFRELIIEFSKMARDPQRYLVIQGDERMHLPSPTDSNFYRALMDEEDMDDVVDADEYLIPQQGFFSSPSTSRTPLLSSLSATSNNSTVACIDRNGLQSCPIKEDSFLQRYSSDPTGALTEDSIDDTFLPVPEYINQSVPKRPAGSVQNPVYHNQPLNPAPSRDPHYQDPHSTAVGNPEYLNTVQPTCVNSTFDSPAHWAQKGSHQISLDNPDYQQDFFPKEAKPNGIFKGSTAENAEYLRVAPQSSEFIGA
T5 sequence (P04626 with tags, fused parts or gaps INS775YVMA): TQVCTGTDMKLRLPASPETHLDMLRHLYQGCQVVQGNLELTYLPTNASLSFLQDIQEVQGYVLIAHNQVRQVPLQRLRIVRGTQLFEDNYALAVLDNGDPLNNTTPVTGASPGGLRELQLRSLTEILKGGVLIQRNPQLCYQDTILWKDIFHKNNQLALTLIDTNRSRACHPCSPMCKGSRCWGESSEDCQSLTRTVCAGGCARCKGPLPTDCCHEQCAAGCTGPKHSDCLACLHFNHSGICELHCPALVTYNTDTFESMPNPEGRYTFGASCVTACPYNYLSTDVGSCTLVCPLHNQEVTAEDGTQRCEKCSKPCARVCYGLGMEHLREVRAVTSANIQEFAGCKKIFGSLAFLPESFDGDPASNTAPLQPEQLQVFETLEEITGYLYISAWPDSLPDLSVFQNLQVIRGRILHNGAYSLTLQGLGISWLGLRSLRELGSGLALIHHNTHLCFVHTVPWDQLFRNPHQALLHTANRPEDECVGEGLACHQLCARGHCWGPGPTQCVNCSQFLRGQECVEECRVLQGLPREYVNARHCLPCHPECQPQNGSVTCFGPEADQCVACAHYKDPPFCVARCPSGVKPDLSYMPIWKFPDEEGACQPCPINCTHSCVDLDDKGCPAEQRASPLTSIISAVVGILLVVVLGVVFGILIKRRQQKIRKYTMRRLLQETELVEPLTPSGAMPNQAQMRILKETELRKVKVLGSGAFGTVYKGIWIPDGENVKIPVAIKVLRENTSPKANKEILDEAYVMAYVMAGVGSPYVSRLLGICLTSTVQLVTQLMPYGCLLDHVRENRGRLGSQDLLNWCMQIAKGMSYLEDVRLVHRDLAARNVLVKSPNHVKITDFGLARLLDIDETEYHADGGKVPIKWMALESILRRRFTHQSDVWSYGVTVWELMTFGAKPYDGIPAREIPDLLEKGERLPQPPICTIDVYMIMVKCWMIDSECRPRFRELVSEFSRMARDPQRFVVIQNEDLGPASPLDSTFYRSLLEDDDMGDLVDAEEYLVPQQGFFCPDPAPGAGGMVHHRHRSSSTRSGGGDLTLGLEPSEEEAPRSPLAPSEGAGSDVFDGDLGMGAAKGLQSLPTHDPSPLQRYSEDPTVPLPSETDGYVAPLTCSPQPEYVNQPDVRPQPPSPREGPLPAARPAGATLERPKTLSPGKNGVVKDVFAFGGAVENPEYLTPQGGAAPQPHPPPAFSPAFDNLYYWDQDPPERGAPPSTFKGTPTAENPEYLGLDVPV
T6 sequence (P00533 with tags, fused parts or gaps DUP771-773): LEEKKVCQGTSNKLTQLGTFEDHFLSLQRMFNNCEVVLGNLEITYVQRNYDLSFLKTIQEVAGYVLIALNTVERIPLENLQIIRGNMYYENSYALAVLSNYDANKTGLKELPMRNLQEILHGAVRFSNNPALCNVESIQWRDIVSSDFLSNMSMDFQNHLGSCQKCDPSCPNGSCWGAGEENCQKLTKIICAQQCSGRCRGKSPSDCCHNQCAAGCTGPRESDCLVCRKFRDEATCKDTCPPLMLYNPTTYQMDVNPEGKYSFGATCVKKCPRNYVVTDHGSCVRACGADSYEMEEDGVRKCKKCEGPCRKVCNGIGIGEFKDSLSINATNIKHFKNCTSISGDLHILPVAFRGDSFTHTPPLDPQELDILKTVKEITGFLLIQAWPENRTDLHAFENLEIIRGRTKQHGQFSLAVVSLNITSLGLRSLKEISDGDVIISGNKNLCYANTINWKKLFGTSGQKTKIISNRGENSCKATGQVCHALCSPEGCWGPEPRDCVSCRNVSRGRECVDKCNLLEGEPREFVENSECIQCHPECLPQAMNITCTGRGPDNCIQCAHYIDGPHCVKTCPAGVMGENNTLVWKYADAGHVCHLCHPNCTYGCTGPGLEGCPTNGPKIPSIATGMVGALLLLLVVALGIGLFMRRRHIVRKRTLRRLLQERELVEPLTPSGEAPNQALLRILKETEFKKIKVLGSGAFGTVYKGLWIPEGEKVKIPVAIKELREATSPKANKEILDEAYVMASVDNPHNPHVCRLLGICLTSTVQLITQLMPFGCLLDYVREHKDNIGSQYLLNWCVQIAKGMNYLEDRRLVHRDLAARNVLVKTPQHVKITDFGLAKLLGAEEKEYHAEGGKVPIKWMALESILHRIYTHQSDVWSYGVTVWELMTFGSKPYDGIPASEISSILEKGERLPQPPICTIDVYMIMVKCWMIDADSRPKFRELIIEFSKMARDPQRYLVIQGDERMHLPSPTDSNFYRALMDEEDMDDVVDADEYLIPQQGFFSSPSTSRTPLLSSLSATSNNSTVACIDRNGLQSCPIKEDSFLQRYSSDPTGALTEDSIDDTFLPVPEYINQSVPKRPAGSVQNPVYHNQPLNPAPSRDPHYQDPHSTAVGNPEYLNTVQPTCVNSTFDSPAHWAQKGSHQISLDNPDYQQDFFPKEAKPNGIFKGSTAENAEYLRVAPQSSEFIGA

IC50 (EGFR WT [1]) [nM]	IC50 (EGFR V3 [2]) [nM]	IC50 (HER2 WT [3]; [15]) [nM]	IC50 (HER2 WT [3]; [16]) [nM]	IC50 (HER2 S310F [4]) [nM]	IC50 (HER2 YVMA [5]) [nM]	IC50 (EGFR WT [6]) [nM]	IC50 (EGFR V3 [7]) [nM]	IC50 (HER2 WT [8]) [nM]	IC50 (HER2 S310F [9]) [nM]	IC50 (HER2 YVMA [10]) [nM]	IC50 (EGFR NPH [11]) [nM]	IC50 (EGFR SVD [12]) [nM]	IC50 (EGFR NPH [13]) [nM]	IC50 (EGFR SVD [14]) [nM]	SMILES
300 to 500	20 to 30	< 5	≤ 5	10 to 20	50 to 100	300 to 500	20 to 30	< 5	10 to 20	50 to 100					C=CC(=O)Nc1cc2c(Nc3ccc(OCc4ccccn4)c(Cl)c3)ncnc2cc1OCCN1CCC(OC)C1 (centres unmarked) [compound 29]
500 to 1000	30 to 50	10 to 20	≤ 20	10 to 20	50 to 100	500 to 1000	30 to 50	10 to 20	10 to 20	50 to 100					C=CC(=O)Nc1cc2c(Nc3ccc(OCc4ccccn4)c(Cl)c3)ncnc2cc1OCCN1CC(F)C1 [compound 34]
300 to 500	10 to 20			10 to 20	20 to 30	300 to 500	10 to 20		10 to 20	20 to 30	20 to 30	20 to 30	20 to 30	20 to 30	C=CC(=O)Nc1cc2c(Nc3ccc(OCc4ccccn4)c(Cl)c3)ncnc2cc1OCCCN1CCN(C)CC1 [compound 69]
50 to 100	10 to 20			5 to 10	5 to 10	50 to 100	10 to 20		5 to 10	5 to 10	50 to 100	30 to 50	50 to 100	30 to 50	CC#CC(=O)Nc1cc2c(Nc3ccc(OCc4ccccn4)c(Cl)c3)ncnc2cc1OCCN1CCN(C)CC1 [compound 70]
300 to 500	30 to 50	5 to 10	≤ 10	20 to 30	50 to 100	300 to 500	30 to 50	5 to 10	20 to 30	50 to 100					C=CC(=O)Nc1cc2c(Nc3ccc(OCc4ccccn4)c(Cl)c3)ncnc2cc1OCCN1CC2(COC2)C1 [compound 38]
	30 to 50	< 5	≤ 5	10 to 20	100 to 200	300 to 500	30 to 50	< 5	10 to 20	100 to 200					C=CC(=O)Nc1cc2c(Nc3ccc(OCc4ccccn4)c(Cl)c3)ncnc2cc1OCCN1CCC(O)C1 (centres unmarked) [compound 30]
100 to 200	20 to 30	5 to 10	≤ 10	10 to 20	50 to 100	100 to 200	20 to 30	5 to 10	10 to 20	50 to 100					CC#CC(=O)Nc1cc2c(Nc3ccc(OCc4ccccn4)c(Cl)c3)ncnc2cc1OC1CCN(C)C1 (centres unmarked) [compound 67]
300 to 500	20 to 30	< 5	≤ 5	10 to 20	50 to 100	300 to 500	20 to 30	< 5	10 to 20	50 to 100					C=CC(=O)Nc1cc2c(Nc3ccc(OCc4ccccn4)c(Cl)c3)ncnc2cc1OCCN(C)CC [compound 32]
